According to the NIST ThermoML archive (doi:10.1021/je5003797):
Several values for one entry are separate records, joined by “and”; a condition that tells them apart may be missing. Identical values can stand only once. Numbers after ± are expanded uncertainties.

Assay: mn = molality of the nth substance listed, in mol/kg
Settings: 298.15 K, 101 kPa, Liquid

NC=O [formamide] + O
mass density (m1 = 0.4985): 1000.74 ± 0.19 kg/m3
mass density (m1 = 0.5096): 1000.84 ± 0.19 kg/m3
mass density (m1 = 0.5191): 1000.9 ± 0.18 kg/m3
mass density (m1 = 0.9969): 1004.03 ± 0.19 kg/m3
mass density (m1 = 1.081): 1004.59 ± 0.19 kg/m3
mass density (m1 = 1.085): 1004.61 ± 0.19 kg/m3
mass density (m1 = 1.499): 1007.18 ± 0.2 kg/m3 and 1007.2 ± 0.2 kg/m3
mass density (m1 = 1.5): 1007.19 ± 0.2 kg/m3
mass density (m1 = 1.999): 1010.19 ± 0.2 kg/m3 and 1010.16 ± 0.2 kg/m3
mass density (m1 = 2.007): 1010.21 ± 0.2 kg/m3
mass density (m1 = 2.48): 1012.92 ± 0.2 kg/m3
mass density (m1 = 2.488): 1012.96 ± 0.21 kg/m3
mass density (m1 = 2.502): 1013.04 ± 0.21 kg/m3
mass density (m1 = 2.994): 1015.72 ± 0.21 kg/m3
mass density (m1 = 3): 1015.76 ± 0.21 kg/m3
mass density (m1 = 3.002): 1015.76 ± 0.21 kg/m3
mass density (m1 = 3.476): 1018.24 ± 0.21 kg/m3
mass density (m1 = 3.502): 1018.39 ± 0.22 kg/m3
mass density (m1 = 3.535): 1018.55 ± 0.21 kg/m3
mass density (m1 = 3.999): 1020.84 ± 0.22 kg/m3
mass density (m1 = 4.044): 1021.08 ± 0.22 kg/m3
mass density (m1 = 4.137): 1021.53 ± 0.22 kg/m3
mass density (m1 = 4.49): 1023.21 ± 0.22 kg/m3
mass density (m1 = 4.502): 1023.26 ± 0.22 kg/m3
mass density (m1 = 4.505): 1023.29 ± 0.22 kg/m3
mass density (m1 = 5.002): 1025.56 ± 0.23 kg/m3
mass density (m1 = 5.012): 1025.61 ± 0.23 kg/m3
mass density (m1 = 5.067): 1025.86 ± 0.23 kg/m3
mass density (m1 = 5.49): 1027.73 ± 0.23 kg/m3
mass density (m1 = 5.547): 1027.97 ± 0.23 kg/m3
mass density (m1 = 5.575): 1028.1 ± 0.23 kg/m3
mass density (m1 = 5.973): 1029.8 ± 0.23 kg/m3
mass density (m1 = 6.008): 1029.91 ± 0.23 kg/m3
mass density (m1 = 6.01): 1029.95 ± 0.24 kg/m3
mass density (m1 = 6.497): 1031.91 ± 0.24 kg/m3
mass density (m1 = 6.503): 1031.93 ± 0.24 kg/m3
mass density (m1 = 6.51): 1031.98 ± 0.24 kg/m3
mass density (m1 = 6.99): 1033.87 ± 0.24 kg/m3
mass density (m1 = 7.004): 1033.94 ± 0.24 kg/m3
mass density (m1 = 7.056): 1034.12 ± 0.24 kg/m3
mass density (m1 = 7.468): 1035.69 ± 0.24 kg/m3
mass density (m1 = 7.481): 1035.75 ± 0.24 kg/m3
mass density (m1 = 7.493): 1035.75 ± 0.24 kg/m3
mass density (m1 = 7.99): 1037.61 ± 0.25 kg/m3
mass density (m1 = 8.002): 1037.64 ± 0.25 kg/m3
mass density (m1 = 8.037): 1037.77 ± 0.25 kg/m3
mass density (m1 = 8.468): 1039.27 ± 0.25 kg/m3
mass density (m1 = 8.506): 1039.42 ± 0.25 kg/m3
mass density (m1 = 8.522): 1039.45 ± 0.25 kg/m3
mass density (m1 = 8.947): 1040.93 ± 0.25 kg/m3
mass density (m1 = 8.99): 1041.07 ± 0.25 kg/m3
mass density (m1 = 9.032): 1041.2 ± 0.25 kg/m3
